Experimental data as given in PubChem BioAssay AID1241 (SRMLSC, 2008).

Test: compounds inducing NF-kB luciferase expression – cell-based, SH-SY5Y, dose response (AID 1241)
Details: SH-SY5Y NF-kB promoter luciferase reporter, fold induction; call rule not given here

EC50, active:
O=C(Nc1ccc(N2CCCC2)c(Cl)c1)c1ccco1 1.68 µM
Cc1ccnc(NC(=O)/C=C/c2ccccc2Cl)c1 10.4 µM
Nc1ccc(-c2nc3ccc([N+](=O)[O-])cc3[nH]2)cc1 1.65 µM
C=CCNc1nc(-c2cc3ccccc3o2)cs1 0.598 µM
COc1cccc(/C=C/C(=O)Nc2ccc3c(c2)OCCO3)c1OC 1.05 µM
CCOC(=O)c1sc(NC(=O)c2sccc2C)cc1C 0.952 µM
COc1ccc(C2CC(c3c(O)cc(C)oc3=O)=NCCS2)c(OC)c1 (stereo not drawn) 2.33 µM
Cc1ccc(/C=C/C(=O)N2CCc3ccccc32)o1 1.33 µM
Cc1cccc(Nc2nc3ccccc3s2)c1C 4.27 µM
COc1ccc(C(=O)NCCSc2ccccc2)cc1 0.956 µM
S=C(c1ccc(-c2ccc(Cl)c(Cl)c2)o1)N1CCOCC1 5.19 µM
CCS/C(N)=N/N=C/c1cc(C)ccc1O 3.31 µM
O=c1c2ccccc2cnn1-c1ccc(Br)cc1 10.2 µM
NC(=O)c1ccccc1N/C=C/C(=O)c1ccccc1 1.03 µM
Brc1ccccc1-c1nc(-c2ccccc2)no1 2.08 µM
COc1ccc(C(=O)/C=C/Nc2cccc(O)c2)cc1 0.986 µM
CCCCOC(=O)Nc1ccc(N2CCCCC2)cc1 20.5 µM
Nc1nc(-c2cccnc2)nc2sc3c(c12)CCCC3 6.84 µM
c1cn2cc(-c3ccc4c(c3)OCO4)nc2s1 1.86 µM
Cc1ccccc1-c1cc(-c2ccccc2O)n[nH]1 18 µM
Cc1ccsc1/C=C1\CCC(C2CCCC2)C1=O (stereo not drawn) 5.84 µM
O=C(Nc1nc2c(s1)CCCC2)c1cccs1 1.07 µM
CC(=O)Nc1ccc2oc(-c3ccccc3Br)nc2c1 1.06 µM
COc1ccc(NC(=O)C2=Cc3ccccc3OC2)cc1 0.8 µM
Cc1occc1C(=O)N/N=C/C(Br)=C/c1ccccc1 1.64 µM
Cc1ccc(-c2nnc(-c3ccccc3)o2)cc1 3.44 µM
O=C1CC(c2ccco2)CC2=C1C1c3ccccc3C(=O)N1c1ccccc1N2 (stereo not drawn) 3.07 µM
Cc1ccc(/C=N/Nc2cccc3cccnc23)c(O)c1 9.47 µM
O=C(Nc1cnc2ccccc2c1)c1ccco1 1.39 µM
Cc1ccsc1C(=O)Nc1ccc2c(c1)OCCO2 3.08 µM
COC(=O)c1ccc(NC(=O)C(=O)c2cccn2C)cc1 1.71 µM
O=C(Nc1ccc2oc(-c3ccccc3F)nc2c1)c1ncn[nH]1 2.11 µM
CCOc1cc(/C=N/Nc2cccc(C(=O)O)c2)ccc1OC(=O)c1ccccc1 4 µM
Cc1occc1C(=O)Nc1ccc2ccccc2c1 3.7 µM
Cc1ccc(-n2nnc(-c3cccnc3Cl)n2)cc1 4.75 µM
CC(C(=O)O)c1ccc(N2Cc3ccccc3C2=O)cc1 (stereo not drawn) 1.52 µM
Cc1ccc(/C=C/C(=O)NC2=NCCS2)cc1 4.32 µM
CCN(CC)c1ccc(NC(=O)c2ccc(Br)o2)cc1 23.9 µM
CCOC(=O)C1CCN(Cc2ccc(O)c3ncccc23)CC1 2.51 µM
COc1ccc(-c2cn3ccc4ccccc4c3n2)cc1 0.716 µM
COc1ccc2c(=O)c(-c3nc(C)cs3)coc2c1 1.08 µM
CCOC(=O)N/C(N)=N/c1nc2ccccc2s1 9.45 µM
Cc1ccc(-c2nc3ccccc3[nH]2)s1 6.09 µM
CCN(CC)c1ccc(/C=N/NC(=O)c2ccco2)cc1 4.28 µM
CCCCc1ccc(-c2ccc(C)cc2O)nc1 3.25 µM
O=C(CCCc1ccccc1)Nc1ccc2c(c1)OCCO2 1.5 µM
Cc1ccsc1C(=O)N/N=C/c1ccc2c(c1)OCO2 1.14 µM
Cc1ccc2nc(NC(=S)NC(=O)c3cccs3)sc2c1 2.23 µM
O=C(c1cccs1)c1ccc(-c2cccs2)s1 0.623 µM
COc1ccc(C(=O)/C=C/c2cn(CN3CCN(C)CC3)c3ccccc23)cc1 1.02 µM
Cc1ccc(C(=O)Nc2nc3c(s2)CCCC3)o1 1.78 µM
CN(C)c1ccc(/C=N/NC(=O)c2ccco2)cc1 18.2 µM
O=C(O)c1cccc(N/N=C/c2ccc(-c3ccccc3)cc2)c1 1.79 µM
COc1cccc(-c2cc(C(=O)N3CCCCCC3)no2)c1 1.99 µM
CCn1c(/C=C/c2ccccc2)nc2ccccc21 1.57 µM
Cc1ccc(C2=NN(S(C)(=O)=O)C(c3ccc4c(c3)OCO4)C2)cc1 (stereo not drawn) 2.65 µM
Cc1ccc(C)c(NC(=O)c2ccc3ccccc3n2)c1 1.89 µM
CCOC(=O)c1sc(=NC(=O)c2cccs2)n(C)c1C 0.778 µM
COc1ccc(N=Cc2sc(O)c3ccccc23)cc1 0.992 µM
COc1cc(/C=N/O)ccc1OCc1ccc(Cl)cc1 0.882 µM
O=c1oc2ccccc2cc1-c1csc(Nc2ccc(O)cc2)n1 3.23 µM
Oc1c(C2=NCCNC(C(F)(F)F)=C2)ccc2ccccc12 17.7 µM
O=C(NCCCn1ccnc1)c1cc(-c2cccs2)on1 24.1 µM
Cc1ccc(N/C=C/C(=O)c2cccs2)cc1C 0.27 µM
Clc1ccccc1Nc1nc(-c2cccnc2)cs1 1.86 µM
O=C(Nc1ccccn1)c1ccc2ccccc2n1 17.2 µM
Cc1ccc(NC(=O)c2ccccc2O)cc1 3.23 µM
Nc1ccc2nc(SCc3cccc(F)c3)sc2c1 3.68 µM
